Results reported in patent US12559495B2 (Agency for Science, Technology and Research, priority 2013, dated 2026).
pIC50: −log10 of the molar value.

System: HEK293-STF3A cells
Test: STF3A assay (luciferase reporter)
Assay type: cell-based
Settings: Homo sapiens, 24 h, 1 day of treatment
Experimental: HEK293-STF cell line was modified from Human embryonic kidney cell line HEK293 transfected with the STF reporter. HEK293-STF3A cell line was further modified from HEK293-STF cell line to express Wnt3A. This cell line was used to identify compounds that regulate either early or late signalling components of the Wnt pathway. L-Wnt3A (ATCC, #CRL-2647) cell line was used for providing Wnt3A conditioned media. The three cell lines were grown in DMEM (Dulbecco's Modified Eagle Medium) with 10% FBS (fetal bovine serum) incubated in 37° C. with 5% CO2. 2×10^4 HEK293-STF3A cells in 75 μl culture media were seeded in each well of white 96 well plates (Greiner #655098) and incubated overnight at 37° C. 25 μl serially diluted compound was added to the cells to give final concentration of 50 μM to 1.5 nM. After 1 day of treatment, 100 μl of Steady-Glo® Luciferase Assay reagent (#E2520, Promega) was added to each well and incubated for 10 minutes at room temperature. Luminescence was measured using Tecan Safire2® plate reader.

CC(C(=O)Nc1ccc(N2CCN(Cc3cc(F)cc(F)c3)CC2)cc1)n1cnc2c1c(=O)n(C)c(=O)n2C (centres unmarked) [Compound 63, N-(4-(4-(3,5-difluorobenzyl)piperazin-1-yl)phenyl)-2-(1,3-dimethyl-2,6-dioxo-2,3-dihydro-1H-purin-7(6H)-yl)propanamide]
pIC50: > 6.00

CCC(C(=O)Nc1ccc(-c2ccsc2)cc1)n1cnc2c1c(=O)n(C)c(=O)n2C (centres unmarked) [Compound 64, 2-(1,3-dimethyl-2,6-dioxo-2,3-dihydro-1H-purin-7(6H)-yl)-N-(4-(thiophen-3-yl)phenyl)butanamide]
pIC50: > 7.00

CC(C)C(C(=O)Nc1ccc(-c2ccccc2)cc1)n1cnc2c1c(=O)n(C)c(=O)n2C (centres unmarked) [Compound 65, N-(biphenyl-4-yl)-2-(1,3-dimethyl-2,6-dioxo-2,3-dihydro-1H-purin-7(6H)-yl)-3-methylbutanamide]
pIC50: < 5.00

Cc1nc2c(c(=O)n(C)c(=O)n2C)n1CC(=O)Nc1ccc(-c2ccsc2)cc1 [Compound 66, N-(4-(thiophen-3-yl)phenyl)-2-(1,3,8-trimethyl-2,6-dioxo-2,3-dihydro-1H-purin-7(6H)-yl)acetamide]
pIC50: > 7.00

Cc1nc2c(c(=O)n(C)c(=O)n2C)n1[C@@H](C)C(=O)Nc1ccc(-c2nccs2)cc1 [Compound 67, (S)—N-(4-(thiazol-2-yl)phenyl)-2-(1,3,8-trimethyl-2,6-dioxo-2,3-dihydro-1H-purin-7(6H)-yl)propanamide]
pIC50: > 6.00

Cn1c(=O)c2c(nc(C3CC3)n2CC(=O)Nc2ccc(-c3ccsc3)cc2)n(C)c1=O [Compound 68, 2-(8-cyclopropyl-1,3-dimethyl-2,6-dioxo-2,3-dihydro-1H-purin-7(6H)-yl)-N-(4-(thiophen-3-yl)phenyl)acetamide]
pIC50: > 7.00

Cn1c(=O)c2c(nc(-c3ccccc3)n2CC(=O)Nc2ccc(-c3ccsc3)cc2)n(C)c1=O [Compound 69, 2-(1,3-dimethyl-2,6-dioxo-8-phenyl-2,3-dihydro-1H-purin-7(6H)-yl)-N-(4-(thiophen-3-yl)phenyl)acetamide]
pIC50: > 7.00

Cn1c(=O)c2c(nc(C(F)(F)F)n2CC(=O)Nc2ccc(-c3ccsc3)cc2)n(C)c1=O [Compound 70, 2-(1,3-dimethyl-2,6-dioxo-8-(trifluoromethyl)-2,3-dihydro-1H-purin-7(6H)-yl)-N-(4-(thiophen-3-yl)phenyl)acetamide]
pIC50: > 7.00

O=C(Cn1cnc2[nH]c(=O)[nH]c(=O)c21)Nc1ccc(-c2ccsc2)cc1 [Compound 71, 2-(2,6-dioxo-2,3-dihydro-1H-purin-7(6H)-yl)-N-(4-(thiophen-3-yl)phenyl) acetamide]
pIC50: < 5.00

CCn1c(=O)c2c(ncn2CC(=O)Nc2ccc(-c3ccsc3)cc2)n(CC)c1=O [Compound 72, 2-(1,3-diethyl-2,6-dioxo-2,3-dihydro-1H-purin-7(6H)-yl)-N-(4-(thiophen-3-yl)phenyl)acetamide]
pIC50: > 7.00

CN(C)c1nc2c(c(=O)n(C)c(=O)n2C)n1CC(=O)Nc1ccc(-c2ccsc2)cc1 [Compound 73, 2-(8-(dimethylamino)-1,3-dimethyl-2,6-dioxo-2,3-dihydro-1H-purin-7(6H)-yl)-N-(4-(thiophen-3-yl)phenyl)acetamide]
pIC50: > 7.00

Cn1c(=O)c2c(nc(N3CCOCC3)n2CC(=O)Nc2ccc(-c3ccsc3)cc2)n(C)c1=O [Compound 74, 2-(1,3-dimethyl-8-morpholino-2,6-dioxo-2,3-dihydro-1H-purin-7(6H)-yl)-N-(4-(thiophen-3-yl)phenyl)acetamide]
pIC50: > 6.00

Cn1c(=O)c2c(nc(-c3cccs3)n2CC(=O)Nc2ccc(-c3ccsc3)cc2)n(C)c1=O [Compound 75, 2-(1,3-dimethyl-2,6-dioxo-8-(thiophen-2-yl)-2,3-dihydro-1H-purin-7(6H)-yl)-N-(4-(thiophen-3-yl)phenyl)acetamide]
pIC50: > 6.00

Cn1c(=O)c2c(nc(Br)n2CC(=O)Nc2ccc(-c3ccsc3)cc2)n(C)c1=O [Compound 76, 2-(8-bromo-1,3-dimethyl-2,6-dioxo-2,3-dihydro-1H-purin-7(6H)-yl)-N-(4-(thiophen-3-yl)phenyl)acetamide]
pIC50: > 7.00
